Data as given in patent publication US7109193B2, “Tricyclic diazepines tocolytic oxytocin receptor antagonists” (Wyeth, priority 2001, dated 2006).

Legend:
[1] = molecular target: T1, human vasopressin V1a receptor subtype (Homo sapiens, UniProt P37288); test: Vasopressin binding in Chinese Hamster Ovary cell membranes expressing human vasopressin V1a subtype receptors; settings: 100 nM, CHO cell membranes, [3H]Manning ligand, values without parentheses
T1 construct: host or cells: CHO cells (pZeoSV vector for the Thibonnier line)
Outline: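 Displacement of [3H]Manning ligand (8 nM working solution) from human V1a receptors in CHO cell membranes, 25–50 μg protein per well. Incubation ran 60 min at room temperature in 50 mM Tris-HCl pH 7.4 with protease inhibitors, followed by filtration and scintillation counting. Results are given as IC50 or percent inhibition.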

T1 sequence (P37288 whole entry): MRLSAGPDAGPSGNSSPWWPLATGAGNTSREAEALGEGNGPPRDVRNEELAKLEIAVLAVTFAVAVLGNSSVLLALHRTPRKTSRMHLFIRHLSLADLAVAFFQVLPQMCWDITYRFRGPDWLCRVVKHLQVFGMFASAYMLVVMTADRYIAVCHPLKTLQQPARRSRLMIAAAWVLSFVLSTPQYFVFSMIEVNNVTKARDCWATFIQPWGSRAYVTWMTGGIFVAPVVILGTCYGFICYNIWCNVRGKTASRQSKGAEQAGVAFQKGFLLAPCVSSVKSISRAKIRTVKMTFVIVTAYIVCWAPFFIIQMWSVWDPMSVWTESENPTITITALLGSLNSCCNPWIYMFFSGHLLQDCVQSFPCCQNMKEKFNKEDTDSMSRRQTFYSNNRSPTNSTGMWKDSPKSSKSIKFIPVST

| Compound | inhibition at 0.1 µM [1] | melting point |
| --- | --- | --- |
| O=C(c1ccc(-c2ccccc2)nc1)N1Cc2cccn2Cc2ccccc21 [Example 29, (6-Phenyl-pyridin-3-yl)-[10,11-dihydro-5H-pyrrolo[2,1-c][1,4]benzodiazepin-10-yl]methanone] | 74% | 171 to 174 °C |
| CCOc1ccccc1-c1cc(OC)c(C(=O)N2Cc3cccn3Cc3ccccc32)cc1Cl [Example 17, 10-{[6-Chloro-3-methoxy-2′-ethoxy[1,1′-biphenyl]-4-yl]carbonyl}-10,11-dihydro-5H-pyrrolo[2,1-c][1,4]benzodiazepine] | -11% | 213 to 215 °C |
| Cc1cc(C(=O)N2Cc3cccn3Cc3ccccc32)ccc1-c1ccncc1 [Example 31, [3-Methyl-4-(4-pyridinyl)phenyl]-[10,11-dihydro-5H-pyrrolo[2,1-c][1,4]benzodiazepin-10-yl]methanone] | 30% | 208 to 210 °C |
